Measured values: US12168781B2, “Production method for T cells or NK cells, medium for culturing T cells or NK cells, method for culturing T cells or NK cells, method for maintaining undifferentiated state of undifferentiated T cells, and growth-accelerating agent for T cells or NK cells” (KIRIN HOLDINGS KABUSHIKI KAISHA, priority 2018, dated 2024)

System: T-iPS-T cells
Assay: Feeder-free culture of T-iPS-T cells, FACS count of PI-negative cells and CD45RA(+)CCR7(+) cells
Format: cell-based, human
Conditions: 6 days; for Number of CD45RA+CCR7+ cells: DMSO 3891 ± 3170; for Cell number: DMSO 16096 ± 10785
Method: After washing, the cells were resuspended in the staining solution containing PI. Half the amount was analyzed using a BD LSR Fortessa cytometer (BD Bioscience) equipped with HTS, and all cells were recorded.
The concentration dependence of the bisbenzylisoquinoline alkaloid represented by the formula (X-1) or the formula (X-2) in feeder-free proliferation of T-iPS-T cells was examined. T-iPS-T cells were cultured using alpha-MEM medium supplemented with 15% FBS, 1% PSG, PAA (50 μg/mL), ITS-G, IL-7 (5 ng/mL), IL-12 (50 ng/mL), IL-15 (5 ng/mL), IL-18 (50 ng/mL), IL-21 (20 ng/mL), and z-VAD-fmk (10 μM).
The effect on culturing of T-iPS-T cells was evaluated by comparing a known compound that contributes to the proliferation of memory T cells with berbamine. […] DMSO (0.1%) that is a solvent for the compound was used as a control.
The number of events of PI-negative cells and the number of events of CD45RA(+)CCR7(+) cells in the PI-negative cells, which were analyzed by FlowJo 9, were used as data. Note that in a statistical analysis, a Student's t-test was used (*: p<0.05).
The effect of the combined use of berbamine with a MAPK cascade inhibitor on the proliferation of memory T cells was examined. […] The final concentration of each compound was set to 1 μM. DMSO (0.1%) that is a solvent for the compound was used as a control.
The number of events (#Cells) of CD45RA(+)CCR7(+) cells in the PI-negative cell population analyzed by FlowJo 9 was plotted and graphed. Note that in a statistical analysis, a Student's t-test was used (*: p<0.05, **P<0.01, ***P<0.001, ****P<0.0001).

Compound: COc1cc2c3cc1Oc1c(OC)c(OC)cc4c1[C@@H](Cc1ccc(O)c(c1)Oc1ccc(cc1)C[C@@H]3N(C)CC2)N(C)CC4 [berbamine]
- Number of CD45RA+CCR7+ cells (1 nM): 5761 ± 4045
- Cell number (1 nM): 18397 ± 10723
- Number of CD45RA+CCR7+ cells (3 nM): 5667 ± 4255
- Cell number (3 nM): 19540 ± 11587
- Number of CD45RA+CCR7+ cells (10 nM): 6186 ± 3617
- Cell number (10 nM): 24672 ± 10675 **
- Number of CD45RA+CCR7+ cells (30 nM): 7186 ± 4180 *
- Cell number (30 nM): 30885 ± 12249 **
- Number of CD45RA+CCR7+ cells (100 nM): 10224 ± 3801 **
- Cell number (100 nM): 48026 ± 6597 **
- Number of CD45RA+CCR7+ cells (300 nM): 12034 ± 6515 *
- Cell number (300 nM): 54888 ± 5691 **
- number of CD45RA(+)CCR7(+) cells, rank among the 266 compounds (1 μM, FIG. 7): highest number of CD45RA(+)CCR7(+) cells
- proliferation of T-iPS-T cells (PI-negative cells and CD45RA(+)CCR7(+) cells) vs DMSO (1 μM, FIG. 12): significant proliferation effect
- Number of CD45RA+CCR7+ cells (1 μM): 12957 ± 9483
- Cell number (1 μM): 43432 ± 23926
- Number of CD45RA+CCR7+ cells (3 μM): 13552 ± 10355
- Cell number (3 μM): 43656 ± 29882
- Number of CD45RA+CCR7+ cells (10 μM): 5650 ± 8552
- Cell number (10 μM): 20559 ± 34130
- number of CD45RA(+)CCR7(+) cells compared with DMSO (each compound 1 μM, FIG. 13): significant cell proliferation
